In patent publication US20240246954A1, “COMPOSITIONS AND METHODS FOR INHIBITING KRAS” (TheRas, Inc., priority 2021, published 2024):

Key:
GppNHp KRAS G12D = GppNHp KRAS G12D (Homo sapiens, UniProt P01116, G12D); test: SPR binding affinity, GppNHp KRAS G12D; details: GppNHp-bound KRAS G12D
[1] = molecular target: T1, Avi-KRAS G12D/Q25A (1-169) GppNHp/3×FLAG-PI3KCA (157-299) (Homo sapiens, UniProt P01116, G12D/Q25A); test: HTRF PI3KCA-KRAS G12D/Q25A-GppNHp disruption assay; assay type: biochemical; details: 1 h incubation
T1 construct: Avi-KRAS G12D/Q25A (1-169) GppNHp
How it was run: (§1)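 Compounds titrated from 100 μM in a 10-point series, incubated with protein mix 1 h at room temperature, then HTRF reagents a further 1 h. Time-resolved fluorescence read (excitation 320 nm, emission 615 nm); activity expressed as percentage of DMSO control.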

[2] = molecular target: T2, Avi-KRAS G12D (1-169) GppNHp/RAF1 RBD-3×FLAG (52-151) (Homo sapiens, UniProt P01116, G12D); test: HTRF Raf1-KRAS G12D-GppNHp disruption assay; assay type: biochemical; details: 1 h incubation
T2 construct: Avi-KRAS G12D (1-169) GppNHp
How it was run: as §1

GDP KRAS G12D = GDP KRAS G12D (Homo sapiens, UniProt P01116, G12D); test: SPR binding affinity, GDP KRAS G12D; details: GDP-bound KRAS G12D
[3] = system: pERK in GP2d cells (KRAS G12D); test: Cell-based pERK HTRF assay; details: GP2d, 1 h, 60 min incubation
How it was run: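 GP2d cells (DMEM, 10% FBS) treated 60 min with compounds in a 9-point half-log series from 1 μM top concentration, 0.25% DMSO. Lysates read for pERK by HTRF (d2/Eu cryptate antibodies) after 4–24 h at room temperature; emission at 615 nm.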

T2 sequence (P01116 1-169 isoform P01116-2 G12D limits assumed): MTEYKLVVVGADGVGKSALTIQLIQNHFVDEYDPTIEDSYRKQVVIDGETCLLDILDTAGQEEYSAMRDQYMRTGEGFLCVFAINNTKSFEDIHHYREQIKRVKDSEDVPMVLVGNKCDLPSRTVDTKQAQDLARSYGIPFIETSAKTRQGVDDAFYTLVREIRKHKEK
GppNHp KRAS G12D, sequence (P01116 1-188 isoform P01116-2 G12D): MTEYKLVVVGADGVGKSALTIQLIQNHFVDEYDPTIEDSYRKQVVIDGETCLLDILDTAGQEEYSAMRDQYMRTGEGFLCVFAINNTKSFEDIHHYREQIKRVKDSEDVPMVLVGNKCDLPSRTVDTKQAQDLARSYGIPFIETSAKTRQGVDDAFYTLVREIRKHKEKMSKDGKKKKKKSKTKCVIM
GDP KRAS G12D, sequence (P01116 1-188 isoform P01116-2 G12D): as above
T1 sequence (P01116 1-169 isoform P01116-2 G12D/Q25A limits assumed): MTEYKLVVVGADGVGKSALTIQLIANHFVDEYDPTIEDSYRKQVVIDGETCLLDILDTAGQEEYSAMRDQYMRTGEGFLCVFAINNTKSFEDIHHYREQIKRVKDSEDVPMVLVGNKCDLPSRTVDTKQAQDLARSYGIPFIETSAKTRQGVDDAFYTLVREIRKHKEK

SMILES	Kd (GppNHp KRAS G12D)	IC50 [1]	IC50 [2]	Kd (GDP KRAS G12D)	IC50 [3]
CN(C)C1CN(c2nc(N3CCNCC3)c3cc(Cl)c(-c4ccc(F)c5sc(N)nc45)c(F)c3n2)C1 [Compound 47]	10000 to 30000 nM	10000 to 30000 nM	10000 to 30000 nM	1000 to 10000 nM	
NCCNc1ncnc2c(F)c(-c3ccc(F)c4sc(N)nc34)c(Cl)cc12 [Compound 5, N^1-(7-(2-amino-7-fluorobenzo[d]thiazol-4-yl)-6-chloro-8-fluoroquinazolin-4-yl)ethane-1,2-diamine]	10000 to 30000 nM	10000 to 30000 nM	10000 to 30000 nM	1000 to 10000 nM	
CO[C@@H]1CN(C)C[C@H]1Oc1nc(NCCN)c2cc(Cl)c(-c3ccc(F)c4sc(N)nc34)c(F)c2n1 [Compound 60]	10000 to 30000 nM	10000 to 30000 nM	10000 to 30000 nM		
CC(C)N1C2CCC1CN(c1nc(OC[C@@]34CCCN3C[C@H](F)C4)nc3c(F)c(-c4ccc(F)c5sc(N)nc45)c(C(F)(F)F)cc13)C2 [Compound 316]		1000 to 10000 nM	1000 to 10000 nM		100 to 1000 nM
CN(c1nc(OC[C@@]23CCCN2C[C@H](F)C3)nc2c(F)c(-c3ccc(F)c4sc(N)c(C#N)c34)c(C(F)(F)F)cc12)[C@]1(C)CCNC1 [Compound 360]		100 to 1000 nM	≤ 100 nM		≤ 100 nM
Nc1nc2c(-c3c(C(F)(F)F)cc4c(N5CC6CCC5CN6)nc(OC[C@@]56CCCN5C[C@H](F)C6)nc4c3F)ccc(F)c2s1 (stereo partly shown) [Compound 223]		100 to 1000 nM	100 to 1000 nM		≤ 100 nM
CO[C@@H]1C[C@@H](COc2nc(NCCN)c3cc(Cl)c(-c4ccc(F)c5sc(N)nc45)c(F)c3n2)N(C)C1 [Compound 61]	1000 to 10000 nM	1000 to 10000 nM	1000 to 10000 nM		
Nc1nc2c(-c3c(C(F)(F)F)cc4c(N5CC6CCC(C5)N6)nc(OC[C@@]56CCCN5C[C@H](F)C6)nc4c3F)ccc(F)c2o1 [Compound 220, 4-(4-(3,8-diazabicyclo[3.2.1]octan-3-yl)-8-fluoro-2-(((2R,7aS)-2-fluorotetrahydro-1H-pyrrolizin-7a(5H)-yl)methoxy)-6-(trifluoromethyl)quinazolin-7-yl)-7-fluorobenzo[d]oxazol-2-amine]		100 to 1000 nM	100 to 1000 nM		≤ 100 nM
CN(c1nc(OC[C@@]23CCCN2C[C@H](F)C3)nc2c(F)c(-c3ccc(F)c4sc(N)c(C#N)c34)c(F)cc12)[C@@H]1CCNC1 [Compound 377]		100 to 1000 nM	100 to 1000 nM		100 to 1000 nM

Further lines, results first:

Kd (GppNHp KRAS G12D)	IC50 [1]	IC50 [2]	Kd (GDP KRAS G12D)	IC50 [3]	SMILES
1000 to 10000 nM	1000 to 10000 nM	1000 to 10000 nM	≤ 100 nM		CN1CCC[C@H]1COc1nc(NC2CNC2)c2cc(Cl)c(-c3ccc(F)c4sc(N)nc34)c(F)c2n1 [Compound 55, 4-(4-(azetidin-3-ylamino)-6-chloro-8-fluoro-2-(((S)-1-methylpyrrolidin-2-yl)methoxy)quinazolin-7-yl)-7-fluorobenzo[d]thiazol-2-amine]
100 to 1000 nM	100 to 1000 nM	100 to 1000 nM	≤ 100 nM		CN(c1nc(OC[C@@]23CCCN2C[C@H](F)C3)nc2c(F)c(-c3ccc(F)c4sc(N)nc34)c(C(F)(F)F)cc12)C1C2C[C@H]1CN2 (stereo partly shown) [Compound 289]
10000 to 30000 nM	10000 to 30000 nM	10000 to 30000 nM			CN1CCC[C@H]1COc1nc(NCCN)c2cc(Cl)c(-c3cccc4cc(O)ccc34)c(F)c2n1 [Compound 74]
1000 to 10000 nM	10000 to 30000 nM	10000 to 30000 nM			CN1CCC[C@H]1COc1nc(N2CCN(C(=O)CN)[C@@H](CC#N)C2)c2cc(Cl)c(-c3ccc(F)c4sc(N)nc34)c(O)c2n1 [Compound 59]
10000 to 30000 nM	10000 to 30000 nM	10000 to 30000 nM			CO[C@@H]1CN(C)C[C@H]1Oc1nc(N2CCNCC2)c2cc(Cl)c(-c3ccc(F)c4sc(N)nc34)c(F)c2n1 [Compound 63]
	100 to 1000 nM	100 to 1000 nM		≤ 100 nM	N#Cc1c(N)sc2c(F)ccc(-c3c(C(F)(F)F)cc4c(N5CC[C@@H]6CNCC[C@@H]65)nc(OC[C@@]56CCCN5C[C@H](F)C6)nc4c3F)c12 [Compound 376]
	1000 to 10000 nM	1000 to 10000 nM		100 to 1000 nM	C[C@H]1CNC[C@@H]1N(C)c1nc(OC[C@@]23CCCN2C[C@H](F)C3)nc2c(F)c(-c3ccc(F)c4sc(N)nc34)c(C(F)(F)F)cc12 [Compound 309]
